Assay results taken from patent US20060035844A1, “Preventive or remedy for diseases caused by hyperglycemia” (priority 2002, published 2006).

Key:
male Zucker fa/fa rats = assay: Effects after mixed-carbohydrate loading with or without sucrose (plasma glucose AUC 0-3 h); format: in vivo, rat; details: Zucker fatty fa/fa rats, oral; Example 1 0.5 mg/kg, Example 2 0.3 mg/kg, acarbose 5 mg/kg, miglitol 5 mg/kg, phlorizin 100 mg/kg; 1.6 g glucose/kg load
Description: Next, in order to investigate whether effects caused by fructose ingestion are present, the present inventors have performed the following test using Zucker fatty fa/fa rats, model animals of type-2 diabetes. […] In the fructose-containing diet group, mixed carbohydrate (starch: sucrose: lactose=6:3:1), which corresponds approximately to carbohydrates in regular diets, was loaded. (e.g., see the following Reference 35). On the other hand, in the fructose-free diet group, mixed carbohydrate substituted the corresponding amount of starch for the amount of glucose contained within sucrose, was loaded, because sucrose is a disaccharide and is digested to glucose and fructose in the gastrointestinal tract. Then, comparison study of each diet was performed.
The FIG. 1 is a graph showing hypoglycemic effects of each drug caused by fructose ingestion.
Effects of SGLT1 Inhibitors, an SGLT Inhibitor and α-glucosidase Inhibitors After Mixed-Carbohydrate Containing Sucrose Loading
Immediately after the compound administration, mixed-carbohydrate with sucrose (starch:sucrose:lactose=6:3:1) or without sucrose (starch:lactose=7.5:1) was loaded at a dose of 1.6 g glucose/kg. The blood was collected immediately before and after the administration with the time course (0, 0.5, 1, 2, 3 hours). The plasma was collected to quantify the plasma glucose concentration. The area under the curve of plasma glucose concentration from 0 to 3 hours was calculated by the trapezoidal method. Statistical analysis was T test between existence and nonexistence of sucrose in mixed-carbohydrate solution on each compound.

rat SGLT1 = molecular target: T1, rat SGLT1 (Rattus norvegicus, UniProt P53790); assay: Assay for inhibitory effects on rat SGLT1 activity (uptake of methyl-α-D-glucopyranoside in CrS1 cells); format: cell-based; details: CHO-K1 cells stably expressing rat SGLT1 (CrS1), 1 mM α-MG, 37° C., 1 hour; read-out: IC50 value, inhibition of uptake of methyl-α-D-glucopyranoside
T1 construct: expressed in transfected cells
T1 sequence (P53790 1-665): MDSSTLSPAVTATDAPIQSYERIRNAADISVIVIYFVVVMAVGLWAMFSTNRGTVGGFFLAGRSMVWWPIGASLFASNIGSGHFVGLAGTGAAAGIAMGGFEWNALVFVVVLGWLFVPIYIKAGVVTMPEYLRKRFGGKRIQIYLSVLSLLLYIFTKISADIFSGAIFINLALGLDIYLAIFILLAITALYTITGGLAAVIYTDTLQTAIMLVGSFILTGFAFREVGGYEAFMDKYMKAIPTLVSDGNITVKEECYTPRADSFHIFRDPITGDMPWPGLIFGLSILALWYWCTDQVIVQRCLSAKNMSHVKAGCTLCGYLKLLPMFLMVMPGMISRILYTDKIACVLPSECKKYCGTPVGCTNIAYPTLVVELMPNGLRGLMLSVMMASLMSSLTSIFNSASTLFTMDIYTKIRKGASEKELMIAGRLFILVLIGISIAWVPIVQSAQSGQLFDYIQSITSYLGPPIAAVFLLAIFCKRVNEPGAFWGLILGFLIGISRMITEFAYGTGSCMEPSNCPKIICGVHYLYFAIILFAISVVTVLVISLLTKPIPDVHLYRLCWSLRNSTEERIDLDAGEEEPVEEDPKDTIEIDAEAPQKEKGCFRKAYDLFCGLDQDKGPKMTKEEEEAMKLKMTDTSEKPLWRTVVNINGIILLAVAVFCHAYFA
Method: A test compound was dissolved in dimethyl sulfoxide, and then appropriately diluted with distilled water. The test compound solution was added to the uptake buffer containing 1 mM α-MG, and designated as a measurement buffer. For the control group, the measurement buffer without any test compound was prepared. […] After repeating the same treatment, the pre-treatment buffer was removed. To each well was added 75 μL of the measurement buffer or the basal uptake buffer was added and incubated at 37° C. for 1 hour. After removing the measurement buffer, cells were washed twice with 180 μL per well of the washing buffer (the basal uptake buffer containing 10 mM non-labeled α-MG). The cells were solubilized by 75 μL per well of 0.2 mol/L sodium hydroxide. The cell lysates were transferred into PicoPlates (Packard), and then added 150 μL of MicroScint-40 (Packard) and mixed. Radioactivity was measured by means of micro-scintillation counter TopCount (Packard).

male Wistar rats = assay: Effects of an SGLT1 inhibitor on absorption of fructose (fructose tolerance test, residual fructose in the gastrointestinal tract); format: in vivo, rat
Method: Effects of an SGLT1 Inhibitor on Absorption of Fructose
Immediately after the administration, 0.2 g/kg of fructose was loaded. After 30 minutes, rats were sacrificed with exsanguination under ether anesthesia and then the contents of stomach and small intestine were collected with 10 mL ice-cold saline. Fructose concentration was measured by fructose assay kit (D-glucose/D-Fructose; Roche diagnostics) and calculated residual fructose (% of dose) in the gastrointestinal tract. Statistical analysis between control and treated groups are calculated using T test.

| SMILES | Reduction of plasma glucose concentration after sucrose-containing diet compared with sucrose-free diet (in words) (male Zucker fa/fa rats) | IC50 (rat SGLT1) | Residual fructose (% of dose) in the gastrointestinal tract (male Wistar rats; 0.3 mg/kg oral, 0.2 g/kg fructose load, after 30 minutes, stomach and small intestine contents, control 11.8 ± 2.1) | Inhibitory effect on absorbing fructose (in words) (male Wistar rats; fructose tolerance test, residual fructose in the gastrointestinal tract) |
| --- | --- | --- | --- | --- |
| O=C(CCc1ccc(O)cc1)c1c(O)cc(O)cc1O[C@@H]1O[C@H](CO)[C@@H](O)[C@H](O)[C@H]1O [Phlorizin, reference compound] | did not reduce plasma glucose concentration | – | – | – |
| Cc1cc(O)cc(O[C@@H]2O[C@H](CO)[C@@H](O)[C@H](O)[C@H]2O)c1Cc1ccc(NC(=O)NCc2cccnc2)cc1 [Example 1, 5-Hydroxy-3-methyl-2-{4-[3-(3-pyridylmethyl)ureido]benzyl}-phenyl β-D-glucopyranoside] | significantly reduced plasma glucose concentration | 139 nM | – | – |
| Cc1cc(OCCNC(=N)N)ccc1Cc1c(O[C@@H]2O[C@H](CO)[C@@H](O)[C@H](O)[C@H]2O)n[nH]c1C(C)C [Example 2, 3-(β-D-Glucopyranosyloxy)-4-{[4-(2-guanidinoethoxy)-2-methylphenyl]methyl}-5-isopropyl-1H-pyrazole] | significantly reduced plasma glucose concentration | 38.1 nM | 12.2 ± 2.6% | substantially show no inhibitory effect on absorbing fructose |
| OCCN1C[C@H](O)[C@@H](O)[C@H](O)[C@H]1CO [miglitol, reference compound] | did not reduce plasma glucose concentration | – | – | – |
